Measurements: patent US8207293B2, “Peptides derived from maurocalcine used as vectors for intracellular addressing of molecules of interest” (Commissariat a l'Energie Atomique, priority 2004, dated 2012)

What was measured:
[1] = tested on: CA1 hippocampal neurons, HEK293 cells, L6 cells; assay: Cell penetration of biotinylated peptide/Strept-Cy3 complexes in various cell cultures, confocal microscopy of fixed cells; format: cell-based; details: 100 nM, 30 min, ambient temperature
Procedure: (§1) Soluble streptavidin-cyanin 3 and streptavidin-cyanin 5 (Strept-Cy^3 and Strept-Cy^5, AMERSHAM) were mixed with 4 molar equivalents of biotinylated maurocalcine (1 mM) or biotinylated maurocalcine-derived peptide, in phosphate buffer (PBS, in mM: 136 NaCl, 1.47 Na2HPO4, 2.6 KCl, 1 CaCl2, 0.5 MgCl2, pH 7.2), for 2 hours at 37° C. and in the dark.
The cells were incubated with maurocalcine and the derived peptides, biotinylated and complexed with streptavidin-cyanin 3 or with streptavidin-cyanin 5, at the final concentration of 100 nM in PBS, in the dark and at ambient temperature, for 30 minutes to 1 hour. […] The Alexa-488 and Cy3 or propidium iodide (PI) fluorescences were excited sequentially and then recorded. The Cy3 fluorescence was excited using a 543 nm helium-neon laser beam and the fluorescence emission was recorded between 554 nm and 625 nm. […]
The primary rat hippocampal neurons and the cells of the HEK293 line and the L6 line (before and after differentiation) are incubated for 30 min at ambient temperature, with 100 nM or 333 nM of maurocalcine-derived peptide, biotinylated and complexed with streptavidin-Cy3, or else 100 nM or 333 nM of MCab/Strept-Cy3, as a control. The cells are fixed and the fluorescence is observed by confocal microscopy.

HEK293 cells = assay: Cell penetration and subcellular distribution of complexes in HEK293 cells, confocal microscopy; format: cell-based, human; details: for cellular distribution of complexes: 333 nM
Procedure: as §1
The human embryonic kidney cells (HEK 293 line, ATCC) are divided before confluence, by treatment with trypsin (1%), and are maintained in DMEM medium (INVITROGEN) containing 10% of inactivated fetal calf serum (INVITROGEN) and 1% of penicillin/streptomycin (INVITROGEN), in a CO2 incubator (5%). The culture medium is changed every 2 days.
The cells were incubated with maurocalcine and the derived peptides, biotinylated and complexed with streptavidin-cyanin 3 or with streptavidin-cyanin 5, […], in the dark and at ambient temperature, for 30 minutes to 1 hour. After 3 washes in PBS, the cells are fixed at ambient temperature, in a paraformaldehyde solution (4%), for 10 min, in the dark, washed in PBS and incubated for one hour with FITC-conjugated concanavalin (MOLECULAR PROBES, 5 μg/ml) in order to label the plasma membrane, and TO-PRO-3 iodide (MOLECULAR PROBES, 1 μM) in order to label the nucleus. In order to label the cytoskeleton, the cells were fixed and permeabilized with ice-cold methanol, for 10 min, washed twice in PBS and incubated with a mouse anti-alpha-tubulin antibody (1:1000, SIGMA), for 2 hours. After two washes in PBS, the cells were incubated for one hour with an anti-mouse IgG secondary antibody conjugated to Alexa 488 (1:1000, MOLECULAR PROBES). The cultures were then mounted in Vectashield mounting medium (VECTOR LABORATORIES). Preparations were observed by laser scanning confocal microscopy, using a Leica TCS-SP2 control system. The Alexa-488 and Cy3 or propidium iodide (PI) fluorescences were excited sequentially and then recorded. The Cy3 fluorescence was excited using a 543 nm helium-neon laser beam and the fluorescence emission was recorded between 554 nm and 625 nm. The images were introduced into Adobe Photoshop 7.0.

Question: How did the “Cy3 labeling of cells (transduction)” value [1] turn out when “MCab/Strept-Cy3: biotinylated maurocalcine, complexed with cyanin-3-labeled streptavidin” was run?
Answer: strong uniform labeling of the plasma membrane and of the cytoplasm of all the cells

Question: And the “entry into cells at decreased temperature” value (HEK293 cells; 100 nM, 1 h, 4° C.)?
Answer: still penetrate into the cells

Question: And the “effect of amiloride on entry of the complex” value (HEK293 cells; 100 nM, 1 h, amiloride 3 mM)?
Answer: no effect on the entry of the complex into the cells

Question: And the “effect of nystatin on entry of the complex” value (HEK293 cells; 100 nM, 1 h, nystatin 50 μM)?
Answer: no effect on the entry of the complex into the cells

Question: What about the “cellular distribution of complexes” value (HEK293 cells; 2 hours of incubation) of the same substance?
Answer: mainly present in the cytoplasm

Question: What about the “cellular distribution of complexes” value (HEK293 cells; between 4 hours and 24 hours of incubation) of the same substance?
Answer: mainly perinuclear and colocalizes with the nucleus
